Data set [1] in a line: Octanol/water partition coefficient. In kind it is physicochemical. Particulars: Table 1.
Data set [2] deals with PSMA (Homo sapiens (Human), UniProt Q04609). As to the kind of experiment: PSMA binding affinity.
The subject of data set [3] is PSMA(+) PC3 PIP cells. Put plainly: Cell uptake, cell surface binding and internalization in PSMA(+) PC3 PIP cells. Format: cell-based, human.

These results are taken from patent publication US11478558B2, “Prostate-specific membrane antigen targeted high-affinity agents for endoradiotherapy of prostate cancer” (The Johns Hopkins University, priority 2017, dated 2022).

PSMA, sequence (Q04609 whole entry): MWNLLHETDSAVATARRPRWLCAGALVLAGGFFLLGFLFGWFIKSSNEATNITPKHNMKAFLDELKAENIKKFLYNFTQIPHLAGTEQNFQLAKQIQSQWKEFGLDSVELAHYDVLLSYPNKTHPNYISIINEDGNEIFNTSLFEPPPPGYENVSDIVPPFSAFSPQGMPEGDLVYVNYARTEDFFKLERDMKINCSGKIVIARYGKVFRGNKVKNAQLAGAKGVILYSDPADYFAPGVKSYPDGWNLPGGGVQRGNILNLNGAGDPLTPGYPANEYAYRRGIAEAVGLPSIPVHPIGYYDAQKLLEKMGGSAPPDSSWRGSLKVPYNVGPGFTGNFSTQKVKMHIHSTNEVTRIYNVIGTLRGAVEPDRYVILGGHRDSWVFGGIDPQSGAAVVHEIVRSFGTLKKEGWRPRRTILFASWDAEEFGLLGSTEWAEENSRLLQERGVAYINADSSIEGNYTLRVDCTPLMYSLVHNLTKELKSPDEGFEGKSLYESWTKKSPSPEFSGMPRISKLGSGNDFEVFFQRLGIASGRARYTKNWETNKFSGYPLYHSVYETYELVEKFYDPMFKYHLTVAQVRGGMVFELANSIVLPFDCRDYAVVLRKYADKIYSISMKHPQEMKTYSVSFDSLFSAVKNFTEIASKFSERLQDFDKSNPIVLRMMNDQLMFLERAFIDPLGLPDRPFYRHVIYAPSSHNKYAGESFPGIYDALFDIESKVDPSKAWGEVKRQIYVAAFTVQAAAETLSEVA

With `O=C(O)CC[C@H](NC(=O)N[C@@H](CCCCN(Cc1ccc(Br)cc1)C(=O)CCCCNC(=S)Nc1ccc(CC2CN(CC(=O)O)CCN(CC(=O)O)CCN(CC(=O)O)CCN2CC(=O)O)cc1)C(=O)O)C(=O)O` (stereo partly drawn) [Ligand 1, (13S,17S)-8-(4-bromobenzyl)-7,15-dioxo-1-((4-((1,4,7,10-tetrakis(carboxymethyl)-1,4,7,10-tetraazacyclododecan-2-yl)methyl)phenyl)amino)-1-thioxo-2,8,14,16-tetraazanonadecane-13,17,19-tricarboxylic acid], the LogPoct/water in data set [1] is on record as −3.0.

What is called IC50 is the point on the concentration scale where inhibition reaches its midpoint. A higher IC50 goes with lower potency. What is called Ki is the equilibrium dissociation constant of an inhibitor or competing ligand from its target. In data set [2] (Table 1), `O=C(O)CC[C@H](NC(=O)N[C@@H](CCCCN(Cc1ccc(Br)cc1)C(=O)CCCCNC(=O)CN1CCN(CC(=O)O)CCN(CC(=O)O)CCN(CC(=O)O)CC1)C(=O)O)C(=O)O` [Ligand 2, (14S,18S)-9-(4-Bromobenzyl)-2,8,16-trioxo-1-(4,7,10-tris(carboxymethyl)-1,4,7,10-tetraazacyclododecan-1-yl)-3,9,15,17-tetraazaicosane-14,18,20-tricarboxylic acid] showed an IC50 of 0.64 nM and a Ki of 1.28 nM. For the same molecule, the LogPoct/water in data set [1] was −3.53.

In the case of `O=C(O)CC[C@H](NC(=O)N[C@@H](CCCCNC(=O)CCCCNC(=S)Nc1ccc(CC2CN(CC(=O)O)CCN(CC(=O)O)CCN(CC(=O)O)CCN2CC(=O)O)cc1)C(=O)O)C(=O)O` (stereo partly drawn) [Ligand 3, (13S,17S)-7,15-dioxo-1-((4-((1,4,7,10-tetrakis(carboxymethyl)-1,4,7,10-tetraazacyclododecan-2-yl)methyl)phenyl)amino)-1-thioxo-2,8,14,16-tetraazanonadecane-13,17,19-tricarboxylic acid], in data set [2] (Table 1), the IC50 amounted to 2.16 nM and the Ki turned out to be 0.43 nM. The molecule also displayed a LogPoct/water in data set [1] of −3.2.

`O=C(O)CC[C@H](NC(=O)N[C@@H](CCCCN(Cc1ccc(I)cc1)C(=O)CCCCNC(=O)CN1CCN(CC(=O)O)CCN(CC(=O)O)CCN(CC(=O)O)CC1)C(=O)O)C(=O)O` [Ligand L2, (14S,18S)-9-(4-iodobenzyl)-2,8,16-trioxo-1-(4,7,10-tris(carboxymethyl)-1,4,7,10-tetraazacyclododecan-1-yl)-3,9,15,17-tetraazaicosane-14,18,20-tricarboxylic acid] showed a Ki in data set [2] (Table 6, given as range) of 0.2 to 0.33 nM. In data set [3], the “Specific Cell Surface Binding” value is given as 29.23 ± 0.80 % IA/10^6 cells and the specific internalization worked out at 24.96 ± 0.90 % IA/10^6 cells.

Take `O=C(O)CC[C@H](NC(=O)N[C@@H](CCCCN(Cc1ccc(Br)cc1)C(=O)CCCCCNC(=O)c1ccc(CNC(=O)CN2CCN(CC(=O)O)CCN(CC(=O)O)CCN(CC(=O)O)CC2)cc1)C(=O)O)C(=O)O` [Ligand L3, (14S,18S)-9-(4-Bromobenzyl)-1,8,16-trioxo-1-(4-((2-(4,7,10-tris(carboxymethyl)-1,4,7,10-tetraazacyclododecan-1-yl)acetamido)methyl)phenyl)-2,9,15,17-tetraazaicosane-14,18,20-tricarboxylic acid]: the Ki in data set [2] (Table 6, given as range) is 0.09 to 34 nM. For the same molecule, in data set [3], the “Specific Cell Surface Binding” value is reported as 36.65 ± 0.50 % IA/10^6 cells and the specific internalization is given as 22.03 ± 0.60 % IA/10^6 cells.

As for `O=C(O)CC[C@H](NC(=O)N[C@@H](CCCCN(Cc1ccc(I)cc1)C(=O)CCCCCNC(=O)c1ccc(CNC(=O)CN2CCN(CC(=O)O)CCN(CC(=O)O)CCN(CC(=O)O)CC2)cc1)C(=O)O)C(=O)O` [Ligand L4, (14S,18S)-9-(4-Iodobenzyl)-1,8,16-trioxo-1-(4-((2-(4,7,10-tris(carboxymethyl)-1,4,7,10-tetraazacyclododecan-1-yl)acetamido)methyl)phenyl)-2,9,15,17-tetraazaicosane-14,18,20-tricarboxylic acid], in data set [2] (Table 6, given as range), the Ki was in the range of 0.14 to 0.39 nM.

In turn, `O=C(O)CC[C@H](NC(=O)N[C@@H](CCCCN(Cc1ccc(Br)cc1)C(=O)CCCCCCC(=O)NCCCCNC(=O)c1ccc(CNC(=O)CN2CCN(CC(=O)O)CCN(CC(=O)O)CCN(CC(=O)O)CC2)cc1)C(=O)O)C(=O)O` [Ligand L5, (21S,25S)-16-(4-Bromobenzyl)-1,8,15,23-tetraoxo-1-(4-((2-(4,7,10-tris(carboxymethyl)-1,4,7,10-tetraazacyclododecan-1-yl)acetamido)methyl)phenyl)-2,7,16,22,24-pentaazaheptacosane-21,25,27-tricarboxylic acid] came in with a Ki in data set [2] (Table 6, given as range) of 0.46 to 0.63 nM. Moreover, in data set [3], the “Specific Cell Surface Binding” value was 36.65 ± 0.50 % IA/10^6 cells and the specific internalization was determined as 22.03 ± 0.60 % IA/10^6 cells.

Molecule `O=C(O)CC[C@H](NC(=O)N[C@@H](CCCCN(Cc1ccc(I)cc1)C(=O)CCCCCCC(=O)NCCCCNC(=O)c1ccc(CNC(=O)CN2CCN(CC(=O)O)CCN(CC(=O)O)CCN(CC(=O)O)CC2)cc1)C(=O)O)C(=O)O` [Ligand L6, (21S,25S)-16-(4-Iodobenzyl)-1,8,15,23-tetraoxo-1-(4-((2-(4,7,10-tris(carboxymethyl)-1,4,7,10-tetraazacyclododecan-1-yl)acetamido)methyl)phenyl)-2,7,16,22,24-pentaazaheptacosane-21,25,27-tricarboxylic acid] displayed a Ki in data set [2] (Table 6, given as range) of 0.35 to 0.93 nM.

In data set [2] (Table 6, given as range), `O=C(O)CC[C@H](NC(=O)N[C@@H](CCCCNC(=O)CCCCNC(=S)Nc1ccc(CC2CN(CC(=O)O)CCN(CC(=O)O)CCN(CC(=O)O)CCN2CC(=O)O)cc1)C(=O)O)C(=O)O` (stereo partly drawn) [Ligand L7, (13S,17S)-7,15-dioxo-1-((4-((1,4,7,10-tetrakis(carboxymethyl)-1,4,7,10-tetraazacyclododecan-2-yl)methyl)phenyl)amino)-1-thioxo-2,8,14,16-tetraazanonadecane-13,17,19-tricarboxylic acid] yielded a Ki of 0.29 to 0.81 nM.

As to `O=C(O)CC[C@H](NC(=O)N[C@@H](CCCCN(Cc1ccc(Br)cc1)C(=O)CCCCNC(=S)Nc1ccc(CC2CN(CC(=O)O)CCN(CC(=O)O)CCN(CC(=O)O)CCN2CC(=O)O)cc1)C(=O)O)C(=O)O` (stereo partly drawn) [Ligand L8, (13S,17S)-8-(4-bromobenzyl)-7,15-dioxo-1-((4-((1,4,7,10-tetrakis(carboxymethyl)-1,4,7,10-tetraazacyclododecan-2-yl)methyl)phenyl)amino)-1-thioxo-2,8,14,16-tetraazanonadecane-13,17,19-tricarboxylic acid], the Ki in data set [2] (Table 6, given as range) lay in the range of 0.08 to 0.16 nM. The molecule also yielded a specific internalization in data set [3] of 20.06 % IA/10^6 cells.

Take `O=C(O)CC[C@H](NC(=O)N[C@@H](CCCCN(Cc1ccc(Br)cc1)C(=O)CCCCNC(=O)CCC(C(=O)O)N1CCN(CC(=O)O)CCN(CC(=O)O)CCN(CC(=O)O)CC1)C(=O)O)C(=O)O` (stereo partly drawn) [Ligand L9, (3S,7S)-12-(4-Bromobenzyl)-5,13,19-trioxo-22-(4,7,10-tris(carboxymethyl)-1,4,7,10-tetraazacyclododecan-1-yl)-4,6,12,18-tetraazadocosane-1,3,7,22-tetracarboxylic acid]: the Ki in data set [2] (Table 6, given as range) was 0.02 to 0.05 nM. The specific internalization in data set [3] is recorded as 7.80 % IA/10^6 cells.

Consider `O=C(O)CC[C@H](NC(=O)N[C@@H](CCCCN(Cc1ccc(Br)cc1)C(=O)c1ccc(CNC(=O)CN2CCN(CC(=O)O)CCN(CC(=O)O)CCN(CC(=O)O)CC2)cc1)C(=O)O)C(=O)O` [Ligand L12, (((S)-5-(N-(4-Bromobenzyl)-4-((2-(4,7,10-tris(carboxymethyl)-1,4,7,10-tetraazacyclododecan-1-yl)acetamido)methyl)benzamido)-1-carboxypentyl)carbamoyl)-L-glutamic acid], for which the Ki in data set [2] (Table 6, given as range) lay in the range of 0.22 to 4.03 nM.

For the molecule `O=C(O)CC[C@H](NC(=O)N[C@@H](CCCCN(Cc1ccc(Br)nc1)C(=O)CCCCNC(=O)CN1CCN(CC(=O)O)CCN(CC(=O)O)CCN(CC(=O)O)CC1)C(=O)O)C(=O)O` [Ligand L13, (14S,18S)-9-((6-Bromopyridin-3-yl)methyl)-2,8,16-trioxo-1-(4,7,10-tris(carboxymethyl)-1,4,7,10-tetraazacyclododecan-1-yl)-3,9,15,17-tetraazaicosane-14,18,20-tricarboxylic acid], in data set [2] (Table 6, given as range), the Ki lay in the range of 0.23 to 8.1 nM.

Take `O=C([O-])CN1CCN(CC(=O)[O-])CCN(CC(=O)NCCCCC(=O)N(CCCC[C@H](NC(=O)N[C@@H](CCC(=O)O)C(=O)O)C(=O)O)Cc2ccc(Br)cc2)CCN(CC(=O)[O-])CC1.[Lu+3]` [Lu-L1]: the “fold improvement in binding affinity over L1” value in data set [2] is 3 fold.
